# Reference: patent US20150284683A1, “METHOD, COMBINATION AND/OR COMPOSITION FOR INDUCING CARDIOMYOCYTE DIFFERENTATION” (SINGAPORE HEALTH SERVICES LTD, priority 2012, published 2015)
# Key:
# Assay type in all cases: cell-based, human
# hiPSC C3 cell line = test: Embryoid body (EB) cardiac differentiation, beating EBs, hiPSC C3
# Description: (§1) Human ES cells (H9; Wicell, USA) and iPS cells (MSnviPSNF2 (C2) and MSnviPSNF3 (C3); both described in Mehta et al., 2011) were maintained on 1% matrigel (BD Biosciences, CA, USA) and grown in chemically defined mTeSR1 medium (Stem Cell Technologies, VA, Canada). Differentiated areas (<10%) were manually removed periodically with a scraper and prior to passaging. Pluripotent stem cells were subsequently washed with DMEM-F12 (Invitrogen, CA, USA) and incubated with 1 mg/ml dispase (Stem Cell Technologies, VA, Canada) for 5-7 minutes. Subsequently, cells colonies were washed using DMEM-F12 and carefully cut into small clumps of approximately 50-70 μm in size before being scrapped from the surface of the culture dishes. […]
# (§2) Subsequently, addition of different small molecules (components) were carried out at various stages of differentiation, either alone or in combination with at least one other component (FIG. 1): SB 203580 daily from day 2 through to day 8 from EB induction; Wnt modulator IWP4 daily from day 4 through to day 8 from EB induction, CSA daily from day 4 through to day 8 from EB induction, and ROS activator H2O2 on day 8 (15 min prior to plating). […] All EBs were evaluated morphologically under the microscope at 4× magnification for 10-15 seconds. […]
# hiPSC C2 cell line = test: Embryoid body (EB) cardiac differentiation, beating EBs, hiPSC C2
# Description: as §1, §2
# hESC (H9) cell line = test: Embryoid body (EB) cardiac differentiation, beating EBs, hESC H9; details: SB203580 5 μM day 2 to day 8
# Description: as §1, §2
# H3-Nkx2.5-GFP line [1] = test: Spin EB contraction during protocol standardization (Example 2); details: only 10 uM SB203580; EBs of 2,500 to 7,500 cells
# Description: Briefly, hiPSC/hESC lines were pre-treated with 10 μM Y27632 (Stem Cell Technologies, VA, Canada) for 4 h before dissociating them to single cells with. Accutase (Stem Cell Technologies, VA, Canada). Cells were aggregated in spin EBs of 5000 cells/EB in AggreWell™ 800 (Stem Cell Technologies, VA, Canada) in media A (mTesR1: DMEM-F12-B27 (1:1) with 4 mg/mL PVA) with Ascorbic acid (284 μM) and BMP4 ([…]) and centrifuged at 300 g for 5 min and incubated overnight. […] […] […] EBs were plated on day 8 in EB2 medium (DMEM-F12 with 2% FBS) on 0.1% gelatin coated dishes. Beating areas were clearly observed between day 10-14 depending on different cell lines. Beating areas were manually dissected out after day 14 of differentiation and utilized for all experiments.
# To maintain consistency in differentiation efficiency, an EB based protocol was utilised to recapitulate early cardiac development that hinges on stage-specific activation and inhibition′ of Wnt/β-catenin along with BMP modulation. All initial experiments were performed using H3-Nkx2.5-GFP line to standardize the protocol. Spin EBs of different sizes (1,000, 2,500, 5,000, 7,500 and 10,000 cells/EB) were made and it was observed that EBs of 2,500 to 7,500 cells gave contracting cardiomyocytes by day 14-15 using only 10 uM SB203580 (FIG. 11B; Non-treated), with highest efficiencies with 5,000 cell EBs. Next. […]
# H3-Nkx2.5-GFP line [2] = test: Real-time PCR gene expression during standardization of differentiation (Example 2); details: Treated S1+S2+VEGF
# Description: For real-time reverse-transcription polymerase chain reaction (qRT-PCR) analysis, RNA was isolated with the RNeasy kit (Qiagen GmbH, Hilden, Germany). One μg of total RNA was converted to complementary DNA. by Superscript III first-strand synthesis system (Invitrogen, CA, USA). cDNA template (5 ng) was used from each sample and SYBR green real-time PCR studies were performed using Quantifast kit (Qiagen GmbH, Hilden, Germany) and primer (Supplementary table 1) as per the kit instructions. Samples were cycled with RotorGene Q (Qiagen GmbH, Hilden, Germany) as follows: 5 minutes at 95° C., followed by 40 cycles of 10 seconds at 95° C. and 30 second extension at 60° C. All experiments were performed in triplicates. Relative quantification was calculated according to the ΔΔCt method for quantitative real-time PCR (using an endogenous control gene, GAPDH). For each gene, the expression at a specific day was then normalized by its baseline values. Heatmaps were generated from Ct values using Genesis software.
# To maintain consistency in differentiation efficiency, an EB based protocol was utilised to recapitulate early cardiac development that hinges on stage-specific activation and inhibition′ of Wnt/β-catenin along with BMP modulation. All initial experiments were performed using H3-Nkx2.5-GFP line to standardize the protocol. […]
# [3] = titration 1, 3, 5, 7 μM with SB203580 5 μM and CSA 3 μg/ml
# [4] = SB203580 5 μM day 2-8, without or with CSA 3 μg/ml day 4-8, 21 days
compound,measurement,setting,value
"COc1ccccc1-n1c(SCC(=O)Nc2nc3ccc(C)cc3s2)nc2c(c1=O)SCC2 [IWP4, 2-(3,4,6,7-tetrahydro-3-(2-methoxyphenyl)-4-oxothieno[3,2-d]pyrimidin-2-ylthio)-N-(6-methylbenzo[d]thiazol-2-yl)acetamide]",IWP4 concentration at which induction of contracting loci peaked,hiPSC C3 cell line; [3],5 µM
same,IWP4 concentration at which induction of contracting loci peaked,hiPSC C2 cell line; [3],5 µM
"C[S+]([O-])c1ccc(-c2nc(-c3ccc(F)cc3)c(-c3ccncc3)[nH]2)cc1 (centres unmarked) [SB203580, 4-[4-(4-fluorophenyl)-2-(4-methylsulfinylphenyl)-1H-imidazol-5-yl]pyridine]",cardiac-inducing effect,hiPSC C3 cell line; [4],no cardiac-inducing effect
same,cardiac-inducing effect,hiPSC C2 cell line; [4],no cardiac-inducing effect
same,day spontaneous beating clusters were first observed,hESC (H9) cell line,14 days
same,percentage of total EBs plated found to be beating,hESC (H9) cell line; after 21 days,16.6%
same,day by which EBs gave contracting cardiomyocytes,H3-Nkx2.5-GFP line [1],14 to 15 days
VEGF,gene expression change,H3-Nkx2.5-GFP line [2],substantially increased gene expression levels of Wnt11
